Assay results: US20200375987A1, “METALLO-BETA-LACTAMASE INHIBITORS AND METHODS OF USE THEREOF” (priority 2018, published 2020)

Columns and labels:
NDM-1 = NDM-1 (Klebsiella pneumoniae, UniProt C7C422); assay: Enzyme activity: determination of IC50, fluorescence assay with CCF2-FA substrate (NDM-1); type: biochemical; details: 1 pM enzyme, 1.25 μM CCF2-FA, 2 hours at 25° C.; read-out: NDM1 IC50
How it was run: (§1)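 Metallo-β-lactamase activity read by fluorescence against CCF2-FA (1.25 μM final) in 100 mM KH2PO4 pH 7 with 0.005% Tween-20 and 10 μM ZnSO4; enzyme final at 1 pM NDM-1, 2 pM IMP-1 or 30 pM VIM-1. Inhibitor at 20 to 0.00063 μM, 2 h at 25° C; IC50 by 4-parameter fit.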

IMP-1 = IMP-1 (Serratia marcescens, UniProt P52699); assay: Enzyme activity: determination of IC50, fluorescence assay with CCF2-FA substrate (IMP-1); type: biochemical; details: 2 pM enzyme, 1.25 μM CCF2-FA, 2 hours at 25° C.; read-out: IMP1 IC50
How it was run: as §1

VIM-1 = VIM-1 (Pseudomonas aeruginosa, UniProt A0A0F7KYQ8); assay: Enzyme activity: determination of IC50, fluorescence assay with CCF2-FA substrate (VIM-1); type: biochemical; details: 30 pM enzyme, 1.25 μM CCF2-FA, 2 hours at 25° C.; read-out: VIM1 IC50
How it was run: as §1

VIM-2 = VIM-2 (Escherichia coli, UniProt Q5U7L7); assay: Enzyme activity: determination of IC50 (VIM-2); type: biochemical; details: read-out: VIM2 IC50
[1] = system: Escherichia coli expressing NDM-1 (CLB30016); assay: Antibiotic potentiation activity: synergistic concentration (MITC95) with imipenem; type: cell-based; details: imipenem 1 μg/mL; lowest concentration inhibiting 95% of growth; 35° C., 22-24 hours
How it was run: (§2)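 Clinical MBL-expressing strains diluted into 1.1× CAMHB were incubated with compound plus imipenem at 1 μg/mL for 22–24 h at 35 °C, then absorbance was read. MITC95 is the lowest compound concentration giving 95% growth inhibition in the presence of imipenem.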

[2] = system: Klebsiella pneumoniae expressing VIM-1 (IHMA599644); assay: as above; type: cell-based; details: imipenem 1 μg/mL; lowest concentration inhibiting 95% of growth; 35° C., 22-24 hours
How it was run: as §2

[3] = system: Serratia marcescens expressing IMP-1 (CL5741); assay: as above; type: cell-based; details: imipenem 1 μg/mL; lowest concentration inhibiting 95% of growth; 35° C., 22-24 hours
How it was run: as §2

[4] = system: P. aeruginosa MB9798 (efflux WT, IMP-1); assay: Efflux: concentration of MBL inhibitor restoring susceptibility to imipenem (MITC95), efflux+ strain; type: cell-based, Pseudomonas aeruginosa; details: imipenem at 2 μg/mL in the presence of a class A, C, D serine β-lactamase inhibitor closely related to relebactam
How it was run: (§3)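 Isogenic P. aeruginosa PAO1 strains, efflux+ and efflux−, transformed with IMP-1 plasmid, were tested by microbroth MIC with fixed imipenem, usually at CLSI breakpoint, plus fixed class A/C β-lactamase inhibitor against AmpC. MBL inhibitor was serially titrated; the concentration restoring susceptibility was recorded.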

[5] = system: P. aeruginosa MB9799 (efflux mutant, IMP-1); assay: Efflux: concentration of MBL inhibitor restoring susceptibility to imipenem (MITC95), efflux− strain; type: cell-based, Pseudomonas aeruginosa; details: imipenem at 2 μg/mL in the presence of a class A, C, D serine β-lactamase inhibitor closely related to relebactam
How it was run: as §3

Sequence of IMP-1 (P52699 19-246, looked up, species assumed): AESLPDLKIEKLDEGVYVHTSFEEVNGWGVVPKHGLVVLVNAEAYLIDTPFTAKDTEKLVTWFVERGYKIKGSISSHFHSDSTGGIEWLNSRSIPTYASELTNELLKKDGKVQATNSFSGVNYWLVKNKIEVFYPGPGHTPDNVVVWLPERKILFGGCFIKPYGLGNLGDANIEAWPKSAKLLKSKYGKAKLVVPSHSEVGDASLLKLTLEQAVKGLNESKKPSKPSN
Sequence of NDM-1 (C7C422 29-270, looked up, species assumed): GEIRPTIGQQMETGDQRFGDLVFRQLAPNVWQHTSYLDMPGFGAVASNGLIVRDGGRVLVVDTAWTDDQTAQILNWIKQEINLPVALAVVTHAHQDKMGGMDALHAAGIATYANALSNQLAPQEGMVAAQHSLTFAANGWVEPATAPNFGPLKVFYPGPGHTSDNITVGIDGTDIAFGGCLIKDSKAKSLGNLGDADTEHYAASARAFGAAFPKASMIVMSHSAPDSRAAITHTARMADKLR

Compound | IC50 (NDM-1) | IC50 (IMP-1) | IC50 (VIM-1) | IC50 (VIM-2) | CLB30016 E.coli MITC95 NDM [1] | IHMA599644 K.pneumoniae MITC95 uM VIM [2] | CL5741 S.marcescens MITC95 uM IMP [3] | MB9798 MITC95 P. aeruginosa Efflux WT [4] | MB9799 MITC95 P. aeruginosa Efflux Mutant [5]
CNC(=O)c1nsc2c1CCN(c1ccc(S(=O)(=O)N[C@@H]3CCNC3)c(S(N)(=O)=O)c1-c1nnn[nH]1)C2 [Example 28, N-methyl-6-{4-[(3R)-pyrrolidin-3-ylsulfamoyl]-3-sulfamoyl-2-(1H-tetrazol-5-yl)phenyl}-4,5,6,7-tetrahydroisothiazolo[5,4-c]pyridine-3-carboxamide] | 0.21 nM | 0.28 nM | 0.15 nM | 0.48 nM | 0.78 µM | 6.25 µM | 1.56 µM | 12.50 µM | 3.13 µM
Nc1nc2c(s1)CN(c1ccc(S(=O)(=O)N[C@@H]3CCNC3)c(S(N)(=O)=O)c1-c1nnn[nH]1)CC2 [Example 29, 4-(2-amino-6,7-dihydro[1,3]thiazolo[5,4-c]pyridin-5(4H)-yl)-N1-[(3R)-pyrrolidin-3-yl]-3-(1H-tetrazol-5-yl)benzene-1,2-disulfonamide] | 6.28 nM | 7.11 nM | 8.27 nM | 32.8 nM | 1.56 µM | 12.50 µM | 1.56 µM | 25.00 µM | 0.78 µM
NS(=O)(=O)c1c(S(=O)(=O)N[C@@H]2CCNC2)ccc(N2CCc3[nH]ncc3C2)c1-c1nnn[nH]1 [Example 30, N1-[(3R)-pyrrolidin-3-yl]-4-(1,4,6,7-tetrahydro-5H-pyrazolo[4,3-c]pyridin-5-yl)-3-(1H-tetrazol-5-yl)benzene-1,2-disulfonamide] | 0.19 nM | 1.11 nM | 0.25 nM | 0.98 nM | 0.78 µM | 6.25 µM | 1.56 µM | 6.25 µM | 1.56 µM
NS(=O)(=O)c1c(S(=O)(=O)N[C@@H]2CCNC2)ccc(N2CCc3[nH]cnc3C2)c1-c1nnn[nH]1 [Example 31, N1-[(3R)-pyrrolidin-3-yl]-4-(1,4,6,7-tetrahydro-5H-imidazo[4,5-c]pyridin-5-yl)-3-(1H-tetrazol-5-yl)benzene-1,2-disulfonamide] | 1.13 nM | 7 nM | 0.59 nM | 3.3 nM | 0.20 µM | 3.13 µM | 0.78 µM | 3.13 µM | 0.78 µM
NS(=O)(=O)c1c(S(=O)(=O)N[C@@H]2CCNC2)ccc(N2CCc3cccnc32)c1-c1nnn[nH]1 [Example 32, 4-(2,3-dihydro-1H-pyrrolo[2,3-b]pyridin-1-yl)-N1-[(3R)-pyrrolidin-3-yl]-3-(1H-tetrazol-5-yl)benzene-1,2-disulfonamide] | 0.21 nM | 1.14 nM | 0.17 nM | 0.39 nM | 1.56 µM | 3.13 µM | 1.56 µM | 3.13 µM | 1.56 µM
NS(=O)(=O)c1c(S(=O)(=O)N[C@@H]2CCNC2)ccc(N2CCc3ccncc32)c1-c1nnn[nH]1 [Example 33, 4-(2,3-dihydro-1H-pyrrolo[2,3-c]pyridin-1-yl)-N1-[(3R)-pyrrolidin-3-yl]-3-(1H-tetrazol-5-yl)benzene-1,2-disulfonamide] | 0.3 nM | 1.73 nM | 0.26 nM | 0.72 nM | 1.56 µM | 3.13 µM | 3.13 µM | 6.25 µM | 1.56 µM
NS(=O)(=O)c1c(S(=O)(=O)N[C@@H]2CCNC2)ccc(N2CCc3ncccc32)c1-c1nnn[nH]1 [Example 34, 4-(2,3-dihydro-1H-pyrrolo[3,2-b]pyridin-1-yl)-N1-[(3R)-pyrrolidin-3-yl]-3-(1H-tetrazol-5-yl)benzene-1,2-disulfonamide] | 0.29 nM | 5.21 nM | 0.25 nM | 0.81 nM | 0.39 µM | 3.13 µM | 1.56 µM | 12.50 µM | 1.56 µM
NS(=O)(=O)c1c(S(=O)(=O)N[C@@H]2CCNC2)ccc(N2CCCc3ccc(CCO)nc32)c1-c1nnn[nH]1 [Example 35, 4-[7-(2-hydroxyethyl)-3,4-dihydro-1,8-naphthyridin-1(2H)-yl]-N1-[(3R)-pyrrolidin-3-yl]-3-(1H-tetrazol-5-yl)benzene-1,2-disulfonamide] | 4.34 nM | 4.68 nM | 5.78 nM | 5.59 nM | 0.78 µM | 6.25 µM | 1.56 µM | 50.00 µM | 0.78 µM
NC[C@@H](O)CNS(=O)(=O)c1ccc(N2CCc3cccnc32)c(-c2nn[nH]n2)c1S(N)(=O)=O [Example 36, (R)—N1-(3-amino-2-hydroxypropyl)-4-(2,3-dihydro-1H-pyrrolo [2,3-b]pyridin-1-yl)-3-(2H-tetrazol-5-yl)benzene-1,2-disulfonamide] | 0.36 nM | 1.4 nM | 0.27 nM | 0.49 nM | 1.56 µM | 3.13 µM | 1.56 µM | 12.50 µM | 0.78 µM
NC[C@@H](O)CS(=O)(=O)c1ccc(N2CCCn3ccnc32)c(-c2nn[nH]n2)c1S(N)(=O)=O [Example 37, (R)-6-((3-amino-2-hydroxypropyl)sulfonyl)-3-(6,7-dihydroimidazo[1,2-a]pyrimidin-8(5H)-yl)-2-(2H-tetrazol-5-yl)benzenesulfonamide] | 4.31 nM | 5.6 nM | 2.22 nM | 4.44 nM | 0.20 µM | 1.56 µM | 0.78 µM | 3.13 µM | 0.78 µM
NC[C@@H](O)CNS(=O)(=O)c1ccc(N2CCC(CO)n3ccnc32)c(-c2nn[nH]n2)c1S(N)(=O)=O (stereo partly drawn) [Example 38, N1-((R)-3-amino-2-hydroxypropyl)-4-(5-(hydroxymethyl)-6,7-dihydroimidazo[1,2-a]pyrimidin-8(5H)-yl)-3-(2H-tetrazol-5-yl)benzene-1,2-disulfonamide] | 0.64 nM | 4.17 nM | 0.4 nM | 2.42 nM | 0.20 µM | 1.56 µM | 0.78 µM | 1.56 µM | 0.78 µM
NC[C@@H](O)CNS(=O)(=O)c1ccc(N2CC[C@@H](CO)n3ccnc32)c(-c2nn[nH]n2)c1S(N)(=O)=O [Example 39, N1-((R)-3-amino-2-hydroxypropyl)-4-((S)-5-(hydroxymethyl)-6,7-dihydroimidazo[1,2-a]pyrimidin-8(5H)-yl)-3-(2H-tetrazol-5-yl)benzene-1,2-disulfonamide] | 0.89 nM | 6.52 nM | 1.62 nM | 14.3 nM | 0.29 µM | 1.56 µM | 0.78 µM | 2.34 µM | 1.17 µM
NC[C@@H](O)CNS(=O)(=O)c1ccc(N2CC[C@H](CO)n3ccnc32)c(-c2nn[nH]n2)c1S(N)(=O)=O [Example 40, N1-((R)-3-amino-2-hydroxypropyl)-4-((R)-5-(hydroxymethyl)-6,7-dihydroimidazo[1,2-a]pyrimidin-8(5H)-yl)-3-(2H-tetrazol-5-yl)benzene-1,2-disulfonamide] | 1.15 nM | 5 nM | 0.27 nM | 2.09 nM | 0.10 µM | 1.56 µM | 0.39 µM | 1.56 µM | 0.78 µM
